This note sets out measurements from ChEMBL document CHEMBL4602648, “The bioisosteric modification of pyrazinamide derivatives led to potent antitubercular agents: Synthesis via click approach and molecular docking of pyrazine-1,2,3-triazoles” (Bioorg Med Chem Lett, 2020).

Values after ≈ are worked out from the molar mass of the structure shown. Active and inactive are the calls of the source. No cut-off for these calls is given here.

Series [1] concerns the target T1, Enoyl-[acyl-carrier-protein] reductase [NADH] (Mycobacterium tuberculosis) (UniProt P9WGR1).
T1 sequence (whole entry): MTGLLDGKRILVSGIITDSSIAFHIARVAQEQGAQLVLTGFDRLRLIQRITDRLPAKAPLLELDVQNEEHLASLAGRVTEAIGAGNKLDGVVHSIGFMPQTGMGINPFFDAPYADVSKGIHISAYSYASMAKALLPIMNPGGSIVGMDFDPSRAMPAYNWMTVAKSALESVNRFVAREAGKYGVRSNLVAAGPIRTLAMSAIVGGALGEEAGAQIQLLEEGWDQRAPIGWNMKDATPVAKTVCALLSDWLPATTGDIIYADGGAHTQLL
The series is described as follows: Inhibition of Mycobacterium tuberculosis H37Rv ATCC 27294 InhA assessed as bacterial growth inhibition after 5 days by microplate alamar blue assay. A general note: Resazurin is reduced to fluorescent resorufin, in cell work by metabolically active cells.

The subject of another series is Escherichia coli. The series is described as follows: Antibacterial activity against Escherichia coli by dilution assay. The class given is functional.
The test system of a further series is Staphylococcus aureus. The series is described as follows: Antibacterial activity against Staphylococcus aureus by dilution assay. The class given is functional.
The next series relates to Pseudomonas aeruginosa. The series is described as follows: Antibacterial activity against Pseudomonas aeruginosa by dilution assay. The class given is functional.
Another series has as its system Vero. Put plainly: Cytotoxicity against African green monkey Vero cells assessed as reduction in cell viability incubated for 48 hrs by MTT assay. The format is cell-based. To be noted: Chlorocebus sabaeus. In general terms: Tetrazolium dyes change colour on reduction, which living cells bring about.
Series [2] can be described thus: Selectivity index, ratio of IC50 for cytotoxicity against African green monkey Vero cells to MIC for antitubercular activity against Mycobacterium tuberculosis H37Rv ATCC 27294. The format is toxicity, cell-based. To be noted: read-out: Selectivity Index.
Series [3] in a line: Cytotoxicity against African green monkey Vero cells assessed as growth inhibition at 62.5 ug/ml after 48 hrs by MTT assay relative to control. The format is cell-based. To be noted: chlorocebus sabaeus, read-out: GI.

What is called IC50 is the point on the concentration scale where inhibition reaches its midpoint. With `O=C(NCc1cn(Cc2ccc([N+](=O)[O-])cc2)nn1)c1cccnc1`, the MIC in series [1] stood at 4.61 µM (≈ 1.56 µg/mL); with Escherichia coli, 12.5 mg/L (≈ 36.9 µM); with Staphylococcus aureus, 6.25 mg/L (≈ 18.5 µM); against Pseudomonas aeruginosa, 6.25 mg/L (≈ 18.5 µM). The IC50 in the series on Vero came to 465 mg/L (≈ 1380 µM). Moreover, the selectivity ratio in series [2] amounted to 298. In series [3], the inhibition at 48 h, 62.5 ug/ml is 7.08%.
On to `O=C(NCc1cn(Cc2ccc(F)cc2)nn1)c1cnccn1`, for which the MIC in series [1] was determined as 4.99 µM (≈ 1.56 µg/mL); against Escherichia coli, 12.5 mg/L (≈ 40 µM); in the series with Staphylococcus aureus, 6.25 mg/L (≈ 20 µM); in the series on Pseudomonas aeruginosa, 12.5 mg/L (≈ 40 µM). Besides, in the series on Vero, the IC50 came to 496 mg/L (≈ 1590 µM). Moreover, the selectivity ratio in series [2] amounted to 318. Moreover, in series [3], the inhibition at 48 h, 62.5 ug/ml came out at 5.9%.
Take `O=C(NCc1cn(Cc2ccc(C(F)(F)F)cc2)nn1)c1cnccn1`: the MIC in series [1] is 4.31 µM (≈ 1.56 µg/mL); with Escherichia coli, 12.5 mg/L (≈ 34.5 µM); in the series on Staphylococcus aureus, 12.5 mg/L (≈ 34.5 µM); with Pseudomonas aeruginosa, 25 mg/L (≈ 69 µM). Besides, the IC50 with Vero stood at 342 mg/L (≈ 944 µM). In addition, the selectivity ratio in series [2] came to 219. In addition, the inhibition at 48 h, 62.5 ug/ml in series [3] came out at 8.4%.
For `O=C(NCc1cn(Cc2ccc(C(F)(F)F)cc2)nn1)c1cccnc1`, the MIC stood at 4.31 µM (≈ 1.56 µg/mL) in series [1], 6.25 mg/L (≈ 17.3 µM) against Escherichia coli, 12.5 mg/L (≈ 34.6 µM) against Staphylococcus aureus and 12.5 mg/L (≈ 34.6 µM) against Pseudomonas aeruginosa. Also, the IC50 in the series with Vero was 336 mg/L (≈ 931 µM). Also, the selectivity ratio in series [2] was found to be 216. The inhibition at 48 h, 62.5 ug/ml in series [3] worked out at 7.42%.
With `N#Cc1ccc(Cn2cc(CNC(=O)c3cccnc3)nn2)cc1`, the MIC in series [1] came to 4.9 µM (≈ 1.56 µg/mL); with Escherichia coli, 6.25 mg/L (≈ 19.6 µM); with Staphylococcus aureus it was 6.25 mg/L (≈ 19.6 µM); with Pseudomonas aeruginosa, 6.25 mg/L (≈ 19.6 µM). The IC50 in the series on Vero is 399 mg/L (≈ 1250 µM). Besides, the selectivity ratio in series [2] turned out to be 256. Further, the inhibition at 48 h, 62.5 ug/ml in series [3] turned out to be 17.7%.
For the compound `O=C(NCc1cn(Cc2ccc([N+](=O)[O-])cc2)nn1)c1cnccn1`, the MIC in series [1] stood at 4.59 µM (≈ 1.56 µg/mL); with Escherichia coli it was 6.25 mg/L (≈ 18.4 µM); with Staphylococcus aureus, 3.12 mg/L (≈ 9.19 µM); in the series with Pseudomonas aeruginosa, 6.25 mg/L (≈ 18.4 µM). Further, in the series on Vero, the IC50 was 403 mg/L (≈ 1190 µM). Besides, in series [2], the selectivity ratio is 258. The inhibition at 48 h, 62.5 ug/ml in series [3] worked out at 20.5%.
For `N#Cc1ccc(Cn2cc(CSc3nnc(-c4cccnc4)o3)nn2)cc1`, the MIC worked out at 66.6 µM (≈ 25 µg/mL) in series [1], 50 mg/L (≈ 133 µM) in the series with Escherichia coli, 50 mg/L (≈ 133 µM) with Staphylococcus aureus and 50 mg/L (≈ 133 µM) in the series with Pseudomonas aeruginosa.
For `O=C(OCc1cn(Cc2ccc(C(F)(F)F)cc2)nn1)c1cnccn1`, the MIC in series [1] is 8.59 µM (≈ 3.12 µg/mL); with Escherichia coli, 25 mg/L (≈ 68.8 µM); with Staphylococcus aureus, 25 mg/L (≈ 68.8 µM); with Pseudomonas aeruginosa, 25 mg/L (≈ 68.8 µM).
For `Fc1ccccc1Cn1cc(CSc2nnc(-c3cnccn3)o2)nn1`, the MIC in series [1] is more than 100 µM; against Staphylococcus aureus, 50 mg/L (≈ 135 µM). Besides, the MIC result in the series on Escherichia coli and in the series on Pseudomonas aeruginosa was “inactive” in each case.
With `N#Cc1ccc(Cn2cc(CNC(=O)c3cnccn3)nn2)cc1`, the MIC in series [1] is 4.88 µM (≈ 1.56 µg/mL); in the series on Escherichia coli it was 6.25 mg/L (≈ 19.6 µM); against Staphylococcus aureus, 6.25 mg/L (≈ 19.6 µM); in the series on Pseudomonas aeruginosa, 6.25 mg/L (≈ 19.6 µM). Further, in the series with Vero, the IC50 is 533 mg/L (≈ 1670 µM). Also, in series [2], the selectivity ratio stood at 342. Moreover, in series [3], the inhibition at 48 h, 62.5 ug/ml was determined as 12.3%.
